Laboratory results published in patent publication US9364479B2, “Use of a receptor-type kinase modulator for treating polycystic kidney disease” (SYMPHONY EVOLUTION, INC., priority 2010, dated 2016).
Where two headings read alike, the source gives them in different places.

Experiments:
PCK rat = type: in vivo; details: for CT-CI / Creatinine / Kidney/Body weight: PN Day 90
Excerpt: The phenotype of the PCK rat is different from that of humans in that it has a slower disease progression and slower decline in renal function. The PCK rats came from a mutated colony of Sprague-Dawley rats from Fujita Health University and were housed at the Medical College of Wisconsin.
Two hours after last injection on PN90 the rats were sacrificed and the kidneys and liver were removed and weighed. Post-mortem measurements included KW/BW ratio and cystic index (CI) using renal sections from the cortex, medulla, and papilla. CT-CI was then determined from cystic index which was based on renal cyst size at 15 day intervals from PN0 to PN135. Renal function was assessed with BUN and creatinine levels from cardiac puncture.

EGFR = target: T1, EGFR (Homo sapiens, UniProt P00533); assay: Luciferase-coupled chemiluminescence kinase assay; type: biochemical; details: ATP at Km
T1 construct: residues H672-A1210 of human EGFR, Proqinase; purchased Proqinase
Method: Dose-response experiments were done using 10 different inhibitor concentrations in 384-well microtiter plates. The ATP concentration used for each assay was equivalent to the Km for each kinase.
A Luciferase-coupled chemiluminescence assay was used to measure EGFR and KDR (VEGFR2) activity. Kinase activity was measured as the percentage of ATP consumed following the kinase reaction using luciferase-luciferin-coupled chemiluminescence. Reactions were conducted in 384-well white, medium-binding microtiter plates (Greiner). […] The reaction mixture was incubated at room temperature for 4 h. Following the kinase reaction, a 20 μL aliquot of Kinase Glo (Promega) was added and luminescence signal was measured using a Victor2 plate reader (Perkin-Elmer). Total ATP consumption was limited to 50%.

[1] = target: T2, Cholecystokinin, CCK2 (CCKB) (Homo sapiens, UniProt P32239); assay: NovaScreen assay; type: binding; details: read-out: Inhibition, 10 μM XL-647
T2 construct: NovaScreen
T2 sequence (P32239 whole entry): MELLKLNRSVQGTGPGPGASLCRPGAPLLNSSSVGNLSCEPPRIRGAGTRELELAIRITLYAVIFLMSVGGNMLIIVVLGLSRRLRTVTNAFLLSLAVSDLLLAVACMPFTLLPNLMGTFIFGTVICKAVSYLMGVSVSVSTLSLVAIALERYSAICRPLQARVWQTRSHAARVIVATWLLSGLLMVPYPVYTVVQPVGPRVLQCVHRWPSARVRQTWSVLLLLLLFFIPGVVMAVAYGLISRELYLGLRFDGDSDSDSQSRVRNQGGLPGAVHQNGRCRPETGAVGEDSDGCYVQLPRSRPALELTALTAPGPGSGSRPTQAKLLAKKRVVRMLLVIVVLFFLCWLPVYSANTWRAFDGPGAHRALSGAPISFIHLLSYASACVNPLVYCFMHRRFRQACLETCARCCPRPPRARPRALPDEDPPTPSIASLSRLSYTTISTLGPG

Flt1 = Flt1 (Homo sapiens, UniProt P17948); assay: Radiometric kinase assay; type: biochemical
Flt1, sequence (P17948 27-1338): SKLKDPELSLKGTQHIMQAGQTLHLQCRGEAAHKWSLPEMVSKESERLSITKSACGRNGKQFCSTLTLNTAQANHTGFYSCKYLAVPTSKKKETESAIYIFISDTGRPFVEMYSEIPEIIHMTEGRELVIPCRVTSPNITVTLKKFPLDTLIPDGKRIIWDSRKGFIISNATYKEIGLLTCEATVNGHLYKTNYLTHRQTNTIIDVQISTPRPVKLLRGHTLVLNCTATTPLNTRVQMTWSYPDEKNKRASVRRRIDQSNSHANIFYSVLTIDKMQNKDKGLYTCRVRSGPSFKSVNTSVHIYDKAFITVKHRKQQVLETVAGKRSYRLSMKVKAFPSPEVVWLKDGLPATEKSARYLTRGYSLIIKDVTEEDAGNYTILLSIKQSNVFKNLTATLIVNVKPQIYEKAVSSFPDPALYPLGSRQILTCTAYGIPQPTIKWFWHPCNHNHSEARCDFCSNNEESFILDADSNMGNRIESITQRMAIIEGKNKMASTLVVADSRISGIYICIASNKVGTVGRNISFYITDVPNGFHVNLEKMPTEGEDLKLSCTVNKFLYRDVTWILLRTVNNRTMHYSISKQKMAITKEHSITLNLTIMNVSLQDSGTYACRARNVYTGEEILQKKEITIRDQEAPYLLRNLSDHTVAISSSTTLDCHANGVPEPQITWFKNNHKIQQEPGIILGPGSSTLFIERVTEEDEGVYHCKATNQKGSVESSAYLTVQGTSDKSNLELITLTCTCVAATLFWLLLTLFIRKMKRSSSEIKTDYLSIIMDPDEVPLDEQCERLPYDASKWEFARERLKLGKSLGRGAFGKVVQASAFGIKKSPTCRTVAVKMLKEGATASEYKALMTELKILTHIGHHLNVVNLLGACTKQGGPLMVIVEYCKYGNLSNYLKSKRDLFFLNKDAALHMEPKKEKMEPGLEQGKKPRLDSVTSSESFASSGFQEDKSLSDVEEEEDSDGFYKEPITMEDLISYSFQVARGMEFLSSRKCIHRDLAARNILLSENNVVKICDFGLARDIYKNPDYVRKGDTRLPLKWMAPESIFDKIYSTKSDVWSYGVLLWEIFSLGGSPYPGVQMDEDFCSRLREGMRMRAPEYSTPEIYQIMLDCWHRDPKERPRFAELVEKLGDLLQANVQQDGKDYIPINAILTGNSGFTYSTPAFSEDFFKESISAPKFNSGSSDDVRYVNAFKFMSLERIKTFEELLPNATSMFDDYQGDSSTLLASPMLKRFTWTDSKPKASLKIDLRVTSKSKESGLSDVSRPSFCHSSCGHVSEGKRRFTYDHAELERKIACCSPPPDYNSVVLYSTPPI
Method: (§1) A radiometric ^33P-Phosphoryl transfer kinase assay was used to measure EphB4, insulin-like growth factor-I receptor (IGFR-1), and insulin receptor (IRK) activity. Reactions were performed in 384-well white, clear bottom, high-binding microtiter plates (Greiner). Plates were coated with 2 μg/well peptide substrate in a 50 μL volume. […] The coated plates were washed once with 50 μL assay buffer following overnight incubation at room temperature. Test compound and either 5 nmol/L EphB4 (residues E605-E890 of human EphB4 containing a six histidine NH2-terminal tag, expressed in a baculovirus expression system and purified using metal chelate chromatography), 4 nmol/L insulin-like growth factor-I receptor (residues M954-C1367 of human insulin-like growth factor-I receptor, Proqinase GmbH), or 15 nmol/L insulin receptor 1 (residues P948-S1343 of human insulin receptor 1, Proqinase) were combined with [^33P]g-ATP (5 μmol/L, 3.3 μCi/nmol) in a total volume of 20 μL. The reaction mixture was incubated at room temperature for 1.5 to 2.5 h and terminated by aspiration. The microtiter plates were subsequently washed six times with 0.05% Tween-PBS buffer. Scintillation fluid (50 μL/well) was added and incorporated ^33P was measured by liquid scintillation spectrometry using a MicroBeta scintillation counter (Perkin-Elmer). […]

Tie-2 = Tie-2 (Homo sapiens, UniProt Q02763); assay: Radiometric kinase assay; type: biochemical
Tie-2, sequence (Q02763 23-1124): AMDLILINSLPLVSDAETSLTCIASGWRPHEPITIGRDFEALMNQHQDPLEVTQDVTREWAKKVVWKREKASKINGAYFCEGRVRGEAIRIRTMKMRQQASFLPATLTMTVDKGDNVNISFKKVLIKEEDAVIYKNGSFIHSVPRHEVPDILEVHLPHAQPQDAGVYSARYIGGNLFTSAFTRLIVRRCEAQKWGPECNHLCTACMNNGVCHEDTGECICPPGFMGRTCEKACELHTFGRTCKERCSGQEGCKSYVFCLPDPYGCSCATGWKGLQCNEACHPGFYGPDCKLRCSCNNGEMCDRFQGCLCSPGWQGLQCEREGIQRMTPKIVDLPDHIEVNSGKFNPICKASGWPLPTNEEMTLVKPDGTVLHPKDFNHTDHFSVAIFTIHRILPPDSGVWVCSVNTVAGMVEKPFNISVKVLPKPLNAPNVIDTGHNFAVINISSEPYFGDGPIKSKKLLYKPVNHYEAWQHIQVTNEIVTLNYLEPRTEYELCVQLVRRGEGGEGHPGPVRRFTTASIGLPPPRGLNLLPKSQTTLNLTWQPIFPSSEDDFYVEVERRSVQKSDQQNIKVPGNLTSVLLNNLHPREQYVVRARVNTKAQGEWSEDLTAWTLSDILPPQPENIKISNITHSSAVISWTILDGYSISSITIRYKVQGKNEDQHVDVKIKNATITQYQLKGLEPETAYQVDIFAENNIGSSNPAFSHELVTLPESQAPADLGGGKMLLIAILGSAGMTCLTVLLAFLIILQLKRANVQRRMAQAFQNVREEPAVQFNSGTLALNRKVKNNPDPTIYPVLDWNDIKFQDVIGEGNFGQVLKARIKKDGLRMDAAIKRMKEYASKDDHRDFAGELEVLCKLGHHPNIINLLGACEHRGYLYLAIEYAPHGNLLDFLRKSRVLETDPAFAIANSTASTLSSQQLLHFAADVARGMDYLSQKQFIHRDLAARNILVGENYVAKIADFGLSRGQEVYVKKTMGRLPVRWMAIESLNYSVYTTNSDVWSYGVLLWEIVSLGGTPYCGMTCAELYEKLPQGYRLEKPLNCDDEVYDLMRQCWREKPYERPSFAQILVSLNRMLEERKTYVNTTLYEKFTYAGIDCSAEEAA
Method: as §1

PDGFRβ = PDGFRβ (Homo sapiens, UniProt P09619); assay: Cellular autophosphorylation assay; type: cell-based
PDGFRβ, sequence (P09619 33-1106, species assumed): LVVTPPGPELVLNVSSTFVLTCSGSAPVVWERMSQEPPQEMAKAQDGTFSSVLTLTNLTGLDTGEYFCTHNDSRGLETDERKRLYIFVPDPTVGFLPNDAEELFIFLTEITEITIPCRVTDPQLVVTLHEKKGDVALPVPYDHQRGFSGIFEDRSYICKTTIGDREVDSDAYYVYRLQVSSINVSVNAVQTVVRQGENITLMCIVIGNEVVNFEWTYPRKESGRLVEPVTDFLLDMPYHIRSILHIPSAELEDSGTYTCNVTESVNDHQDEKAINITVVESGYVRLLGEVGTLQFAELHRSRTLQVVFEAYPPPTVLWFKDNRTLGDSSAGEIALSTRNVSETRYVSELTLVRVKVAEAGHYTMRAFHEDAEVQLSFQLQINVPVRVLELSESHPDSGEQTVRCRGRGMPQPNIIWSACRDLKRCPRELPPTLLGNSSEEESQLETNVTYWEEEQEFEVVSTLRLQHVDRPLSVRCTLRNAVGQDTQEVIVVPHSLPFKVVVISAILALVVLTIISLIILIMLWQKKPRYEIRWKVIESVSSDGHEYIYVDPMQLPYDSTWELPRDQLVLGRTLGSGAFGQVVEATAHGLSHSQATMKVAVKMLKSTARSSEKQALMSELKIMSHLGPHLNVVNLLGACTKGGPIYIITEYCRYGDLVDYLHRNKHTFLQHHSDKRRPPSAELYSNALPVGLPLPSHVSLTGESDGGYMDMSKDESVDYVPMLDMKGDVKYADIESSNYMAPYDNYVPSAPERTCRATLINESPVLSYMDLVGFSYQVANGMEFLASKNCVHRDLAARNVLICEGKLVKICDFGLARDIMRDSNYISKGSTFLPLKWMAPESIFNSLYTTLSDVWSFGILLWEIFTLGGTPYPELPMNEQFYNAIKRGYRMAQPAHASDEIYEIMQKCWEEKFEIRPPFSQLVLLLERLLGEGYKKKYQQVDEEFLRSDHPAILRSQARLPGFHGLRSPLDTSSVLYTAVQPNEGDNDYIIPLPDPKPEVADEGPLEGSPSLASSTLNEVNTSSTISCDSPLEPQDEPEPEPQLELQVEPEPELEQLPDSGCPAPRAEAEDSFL

in vivo = details: for AUC(0-t) / Cmax / half-life: po; for dosing terminated because of toxicity: 2 days
Method: The nonclinical Pharmacokinetics (PK) of XL-647 was studied in mice, rats, dogs, and monkeys. Animals were dosed either once or daily over several days, as described in Table 21 and 22 below. A summary of results can also be found in Tables 21 and 22 below. […] Mean tmax values were approximately 4 to 8 hours, and plasma terminal half-lives ranged from 9.41 to 20.9 hours.

EGFR L861Q (pCMV/Lx-1) = EGFR L861Q (pCMV/Lx-1) (Homo sapiens, UniProt P00533, L861Q); assay: EGFR phosphorylation ELISA in transfected Lx-1 cells
EGFR L861Q (pCMV/Lx-1), sequence (P00533 25-1210 L861Q): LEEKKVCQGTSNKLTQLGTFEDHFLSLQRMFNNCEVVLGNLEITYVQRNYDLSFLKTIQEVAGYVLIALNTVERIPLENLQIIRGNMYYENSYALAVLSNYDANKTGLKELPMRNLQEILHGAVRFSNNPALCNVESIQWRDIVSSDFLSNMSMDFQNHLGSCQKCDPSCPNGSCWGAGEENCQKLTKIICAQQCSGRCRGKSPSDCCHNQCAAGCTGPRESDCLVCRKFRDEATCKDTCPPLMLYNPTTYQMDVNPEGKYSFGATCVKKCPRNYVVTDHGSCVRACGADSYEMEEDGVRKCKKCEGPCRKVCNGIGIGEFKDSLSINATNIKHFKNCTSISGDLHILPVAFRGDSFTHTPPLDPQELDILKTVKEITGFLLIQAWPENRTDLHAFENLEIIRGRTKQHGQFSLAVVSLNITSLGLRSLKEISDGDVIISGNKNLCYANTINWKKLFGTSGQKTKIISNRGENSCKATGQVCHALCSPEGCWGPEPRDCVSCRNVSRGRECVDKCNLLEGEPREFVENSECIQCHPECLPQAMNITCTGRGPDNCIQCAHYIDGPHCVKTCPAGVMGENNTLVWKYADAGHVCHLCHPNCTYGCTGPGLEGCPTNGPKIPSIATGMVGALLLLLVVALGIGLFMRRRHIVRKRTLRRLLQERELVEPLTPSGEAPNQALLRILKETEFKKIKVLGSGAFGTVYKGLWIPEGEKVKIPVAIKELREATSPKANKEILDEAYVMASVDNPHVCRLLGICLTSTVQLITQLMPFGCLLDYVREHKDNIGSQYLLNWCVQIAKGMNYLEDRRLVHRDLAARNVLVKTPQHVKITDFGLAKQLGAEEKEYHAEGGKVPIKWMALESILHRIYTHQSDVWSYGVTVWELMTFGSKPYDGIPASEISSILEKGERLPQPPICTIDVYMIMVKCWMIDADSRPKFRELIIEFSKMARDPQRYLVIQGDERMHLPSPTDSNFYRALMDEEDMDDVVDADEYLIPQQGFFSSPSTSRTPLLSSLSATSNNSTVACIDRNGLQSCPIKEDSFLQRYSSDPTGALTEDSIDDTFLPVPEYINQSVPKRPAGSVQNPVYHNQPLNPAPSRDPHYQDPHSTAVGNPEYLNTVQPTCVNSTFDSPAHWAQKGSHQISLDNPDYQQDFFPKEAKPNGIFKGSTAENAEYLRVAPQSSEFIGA
Excerpt: Lx-1 cells were used because they lack background EGFR activity. A clone corresponding to the longest EGFR isoform (Genbank accession no. NM_005228.3/NP_005219.2 #21-176, Upstate Biotechnology) was used as a template to produce two mutant EGFR genes (coding for L858R and L861Q) by site-directed mutagenesis. The WT and the two sequence-verified mutants were transferred to a COOH-terminal Flag-tagged retroviral cytomegalovirus promoter-driven mammalian expression vector. The two Tet-On expression vectors, EGFR WT (Tet-On) and EGFRvIII (Tet-On), which were COOH-terminally Flag tagged, were generously provided by Dr. Abhijit Guha (University of Toronto, Toronto, Ontario, Canada).
Transient transfections of Lx-1 cells were done using Lipofectamine 2000 (Invitrogen) according to the manufacturer's protocol. For transfections of the WT, L858R, and L861Q constructs, 1 μg plasmid DNA was used for each transfection (each well of a 12-well plate). […]
For the EGFR phosphorylation ELISA, Reacti-Bind streptavidin-coated plates (Pierce) were coated with 2 μg/mL biotin-conjugated anti-Flag antibody (Sigma). […] Horseradish peroxidase activity was determined by reading the plates in a Victor2 plate reader following addition of the ELISA Femto substrate.

[2] = 7.5 mg/kg/day, PN Day 90, 7.5 mg/kg/day
[3] = 7.5 mg/kg/day, PN Day 90, listed as PRIM-001, 7.5 mg/kg/day
[4] = 15 mg/kg/day, PN Day 90, 15 mg/kg/day
[5] = 15 mg/kg/day, PN Day 90, listed as PRIM-001, 15 mg/kg/day

For COc1cc2c(Nc3ccc(Cl)c(Cl)c3F)ncnc2cc1OC[C@@H]1C[C@@H]2CN(C)C[C@@H]2C1 [XL-647, N-(3,4-dichloro-2-fluorophenyl)-7-({[(3aR,5r,6aS)-2-methyloctahydrocyclopenta[c]pyrrol-5-yl]methyl}oxy)-6-(methyloxy)quinazolin-4-amine], the “decrease of BUN level” value (PCK rat; 7.5 mg/kg q.d.) was 19.2%, the “decrease of kidney weight” value (PCK rat; 7.5 mg/kg q.d.) was 13.4% and the “reduction of CT-CI” value (PCK rat; 7.5 mg/kg q.d.) was 19.6%. For the same compound, the CT-CI (PCK rat; 7.5 mg/kg/day) was 5.63, the Creatinine (PCK rat; 7.5 mg/kg/day) was 0.48 ± 0.09 mg/dL and the Kidney/Body weight (PCK rat; 7.5 mg/kg/day) was 1.5%. The BUN (PCK rat; [2]) was 27.50 ± 3.74 mg/dL, the “Kidney Weight” value (PCK rat; [2]) was 5.77 ± 0.47 g and the BUN (PCK rat; [3]) was 27.50 ± 3.74 mg/dL. For the same compound, the “Kidney Weight” value (PCK rat; [3]) was 5.77 g, the “decrease of BUN level” value (PCK rat; 15 mg/kg q.d.) was 28.8% and the “decrease of kidney weight” value (PCK rat; 15 mg/kg q.d.) was 26.0%. The “reduction of CT-CI” value (PCK rat; 15 mg/kg q.d.) was 35.7%, the CT-CI (PCK rat; 15 mg/kg/day) was 4.50 and the Creatinine (PCK rat; 15 mg/kg/day) was 0.46 ± 0.07 mg/dL. For the same compound, the Kidney/Body weight (PCK rat; 15 mg/kg/day) was 1.31%, the BUN (PCK rat; [4]) was 24.25 ± 4.3 mg/dL and the “Kidney Weight” value (PCK rat; [4]) was 4.93 ± 0.42 g. For the same compound, the BUN (PCK rat; [5]) was 24.25 ± 4.30 mg/dL, the “Kidney Weight” value (PCK rat; [5]) was 4.93 g and the IC50 (EGFR) was 0.3 ± 0.1 nM. For the same compound, the inhibition at 10 µM [1] was 17.1%, the IC50 (Flt1) was 56.5 ± 15.5 nM and the IC50 (Tie-2) was 54 ± 13.4 nM. For the same compound, the IC50 (PDGFRβ) was over 1200 nM, the AUC(0-t) (in vivo; female, dog, 100 mg/kg) was 21200 ng·h/mL and the Cmax (in vivo; female, dog, 100 mg/kg) was 1100 ng/mL. It also gave a half-life (in vivo; female, dog, 100 mg/kg) of 14.2 h, an AUC(0-t) (in vivo; female, dog, 300 mg/kg) of 17100 ng·h/mL and a Cmax (in vivo; female, dog, 300 mg/kg) of 1610 ng/mL. It also gave a half-life (in vivo; female, dog, 300 mg/kg) of 12.1 h, an AUC(0-t) (in vivo; female, dog, 1000 mg/kg) of 34200 ng·h/mL and a Cmax (in vivo; female, dog, 1000 mg/kg) of 5090 ng/mL. The half-life (in vivo; female, dog, 1000 mg/kg) was 16.1 h, the AUC(0-t) (in vivo; female, monkey, 2 mg/kg) was 450 ng·h/mL and the Cmax (in vivo; female, monkey, 2 mg/kg) was 38 ng/mL. For the same compound, the AUC(0-t) (in vivo; female, monkey, 6 mg/kg) was 1690 ng·h/mL, the Cmax (in vivo; female, monkey, 6 mg/kg) was 116 ng/mL and the AUC(0-t) (in vivo; female, monkey, 10 mg/kg) was 4270 ng·h/mL. It also gave a Cmax (in vivo; female, monkey, 10 mg/kg) of 216 ng/mL, a half-life (in vivo; female, monkey, 10 mg/kg) of 14.9 h and an AUC(0-t) (in vivo; female, monkey, 20 mg/kg) of 3910 ng·h/mL. The Cmax (in vivo; female, monkey, 20 mg/kg) was 202 ng/mL, the half-life (in vivo; female, monkey, 50 mg/kg) was 14.8 h and the AUC(0-t) (in vivo; female, monkey, 100 mg/kg) was 28000 ng·h/mL. The Cmax (in vivo; female, monkey, 100 mg/kg) was 2160 ng/mL, the half-life (in vivo; female, monkey, 100 mg/kg) was 11.6 h and the AUC(0-t) (in vivo; female, monkey, 150 mg/kg) was 7030 ng·h/mL. For the same compound, the Cmax (in vivo; female, monkey, 150 mg/kg) was 379 ng/mL, the half-life (in vivo; female, monkey, 150 mg/kg) was 20.4 h and the AUC(0-t) (in vivo; male, dog, 100 mg/kg) was 8970 ng·h/mL. The Cmax (in vivo; male, dog, 100 mg/kg) was 407 ng/mL, the half-life (in vivo; male, dog, 100 mg/kg) was 10.4 h and the AUC(0-t) (in vivo; male, dog, 300 mg/kg) was 7790 ng·h/mL. The Cmax (in vivo; male, dog, 300 mg/kg) was 936 ng/mL, the half-life (in vivo; male, dog, 300 mg/kg) was 12.7 h and the AUC(0-t) (in vivo; male, dog, 1000 mg/kg) was 27300 ng·h/mL. It also gave a Cmax (in vivo; male, dog, 1000 mg/kg) of 3770 ng/mL, a half-life (in vivo; male, dog, 1000 mg/kg) of 13.2 h and an AUC(0-t) (in vivo; male, monkey, 2 mg/kg) of 488 ng·h/mL. For the same compound, the Cmax (in vivo; male, monkey, 2 mg/kg) was 28.4 ng/mL, the AUC(0-t) (in vivo; male, monkey, 6 mg/kg) was 1860 ng·h/mL and the Cmax (in vivo; male, monkey, 6 mg/kg) was 106 ng/mL. The AUC(0-t) (in vivo; male, monkey, 10 mg/kg) was 3630 ng·h/mL, the Cmax (in vivo; male, monkey, 10 mg/kg) was 230 ng/mL and the half-life (in vivo; male, monkey, 10 mg/kg) was 14.7 h. The AUC(0-t) (in vivo; male, monkey, 20 mg/kg) was 3900 ng·h/mL, the Cmax (in vivo; male, monkey, 20 mg/kg) was 194 ng/mL and the half-life (in vivo; male, monkey, 50 mg/kg) was 20.5 h. For the same compound, the AUC(0-t) (in vivo; male, monkey, 100 mg/kg) was 19600 ng·h/mL, the Cmax (in vivo; male, monkey, 100 mg/kg) was 1220 ng/mL and the half-life (in vivo; male, monkey, 100 mg/kg) was 20.7 h. The AUC(0-t) (in vivo; male, monkey, 150 mg/kg) was 14500 ng·h/mL, the Cmax (in vivo; male, monkey, 150 mg/kg) was 737 ng/mL and the half-life (in vivo; male, monkey, 150 mg/kg) was 19.8 h. For the same compound, the “dosing terminated because of toxicity observed on Days 6 and 7” value (in vivo; monkey, 20 mg/kg) was “then terminated because”, the “dosing terminated because of toxicity” value (in vivo; monkey, 50 mg/kg) was “bid × 2, then terminated” and the “dosing terminated because of toxicity” value (in vivo; monkey, 100 mg/kg) was “qd × 2, then terminated”. For the same compound, the “dosing terminated because of toxicity” value (in vivo; monkey, 300 mg/kg) was “qd × 2, then terminated”, the AUC(0-t) (in vivo; rat, 1 mg/kg) was 198 ng·h/mL and the Cmax (in vivo; rat, 1 mg/kg) was 12.7 ng/mL. The half-life (in vivo; rat, 1 mg/kg) was 14.4 h, the AUC(0-t) (in vivo; rat, 3 mg/kg) was 776 ng·h/mL and the Cmax (in vivo; rat, 3 mg/kg) was 50.4 ng/mL. The half-life (in vivo; rat, 3 mg/kg) was 20.4 h, the AUC(0-t) (in vivo; rat, 30 mg/kg) was 5740 ng·h/mL and the Cmax (in vivo; rat, 30 mg/kg) was 319 ng/mL. For the same compound, the half-life (in vivo; rat, 30 mg/kg) was 20.4 h, the AUC(0-t) (in vivo; rat, 100 mg/kg) was 18300 ng·h/mL and the Cmax (in vivo; rat, 100 mg/kg) was 909 ng/mL. The AUC(0-t) (in vivo; rat, 200 mg/kg) was 29500 ng·h/mL, the Cmax (in vivo; rat, 200 mg/kg) was 1000 ng/mL and the AUC(0-t) (in vivo; rat, 600 mg/kg) was 41200 ng·h/mL. For the same compound, the Cmax (in vivo; rat, 600 mg/kg) was 1330 ng/mL, the AUC(0-t) (in vivo; rat, 2000 mg/kg) was 53000 ng·h/mL and the Cmax (in vivo; rat, 2000 mg/kg) was 1690 ng/mL. The IC50 (EGFR L861Q (pCMV/Lx-1)) was 10 nM.
